This is an account of results in patent US6635642B1, “PARP inhibitors, pharmaceutical compositions comprising same, and methods of using same” (Guilford Pharmaceuticals Inc., priority 1997, dated 2003).

The IC50 is the concentration at which inhibition is half-maximal.

T1 sequence (P09874 whole entry): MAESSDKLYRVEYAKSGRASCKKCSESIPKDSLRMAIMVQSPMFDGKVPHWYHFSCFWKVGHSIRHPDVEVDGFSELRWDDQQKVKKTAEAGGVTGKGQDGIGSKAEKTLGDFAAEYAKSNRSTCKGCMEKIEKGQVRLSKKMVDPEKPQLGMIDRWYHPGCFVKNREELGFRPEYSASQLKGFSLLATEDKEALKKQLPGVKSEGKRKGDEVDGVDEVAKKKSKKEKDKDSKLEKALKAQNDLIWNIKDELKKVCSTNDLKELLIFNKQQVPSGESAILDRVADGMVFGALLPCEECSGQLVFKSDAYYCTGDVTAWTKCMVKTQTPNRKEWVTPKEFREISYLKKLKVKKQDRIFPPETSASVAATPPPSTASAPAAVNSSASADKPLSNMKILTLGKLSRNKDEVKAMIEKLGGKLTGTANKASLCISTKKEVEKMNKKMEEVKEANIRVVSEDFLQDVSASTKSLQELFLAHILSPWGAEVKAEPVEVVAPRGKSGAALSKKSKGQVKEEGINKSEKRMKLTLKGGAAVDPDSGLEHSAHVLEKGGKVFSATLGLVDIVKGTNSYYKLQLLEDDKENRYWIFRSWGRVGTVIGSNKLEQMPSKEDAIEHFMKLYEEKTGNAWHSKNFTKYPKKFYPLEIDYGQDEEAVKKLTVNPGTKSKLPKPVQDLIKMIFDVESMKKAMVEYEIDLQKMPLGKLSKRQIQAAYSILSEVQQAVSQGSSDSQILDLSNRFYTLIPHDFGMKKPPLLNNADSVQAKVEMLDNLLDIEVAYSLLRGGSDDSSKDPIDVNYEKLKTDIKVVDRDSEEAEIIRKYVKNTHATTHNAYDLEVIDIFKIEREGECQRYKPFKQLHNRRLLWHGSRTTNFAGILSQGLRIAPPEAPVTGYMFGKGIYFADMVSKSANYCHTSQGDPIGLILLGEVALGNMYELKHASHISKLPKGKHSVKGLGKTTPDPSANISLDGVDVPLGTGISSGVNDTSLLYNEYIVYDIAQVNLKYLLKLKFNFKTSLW

The first assay concerns the target T1, purified recombinant human PARP (Homo sapiens, UniProt P09874).
T1 construct: purchased Trevigen (Gaithersburg, Md.)
Kind of assay: PARP enzyme assay ([3H]NAD incorporation, scintillation counting). The format is biochemical.
Conditions: not given
On the procedure: The reaction was initiated by incubating the mixture at 25° C. After 15 minutes' incubation, the reaction was terminated by adding 500 microliters of ice cold 20% (w/v) trichloroacetic acid. The precipitate formed was transferred onto a glass fiber filter (Packard Unifilter-GF/B) and washed three times with ethanol. After the filter was dried, the radioactivity was determined by scintillation counting.
Regarding `O=C1NCc2cccc3cccc1c23`, the IC50 was 0.54 µM.

As to `Nc1ccc2c3c(cccc13)C(=O)NC2=O`, the IC50 came out at 0.09 µM.

As for `O=C1NCCc2c(OCCCCN3CCCCC3)cccc21` [drawing 52], the IC50 was 1.9 µM.

The assay is the same for the next values; noted with them: PARP inhibition; unit given as uM; read-out: Approximate IC50's.
As for `O=C1NCC([N+](=O)[O-])c2ccccc21` (stereo not shown), the IC50 stood at 1.6 µM.

Take `O=c1[nH]c(-c2ccccc2)cc2ccccc12`: the IC50 was 1.3 µM.

On to `O=c1[nH]ccc2c([N+](=O)[O-])cccc12`, for which the IC50 worked out at 3.4 µM.

Consider `NC(=O)c1cccc2cccc(C(=O)O)c12` [drawing 17], for which the IC50 worked out at 0.25 µM.

The same assay, now with this note: PARP inhibition; unit inferred; read-out: Approximate IC50's.
Regarding `O=C1NCC2c3ccccc3Oc3cccc1c32` (stereo not shown), the IC50 amounted to 0.2 µM.

Turning to `O=c1[nH]nc2c3c(cccc13)Oc1ccccc1-2`, the IC50 turned out to be 0.08 µM.

As to `O=c1[nH]nc2c3c(cccc13)Sc1ccccc1-2`, the IC50 was 0.11 µM.

As for `O=c1[nH]nc2c3c(cccc13)-c1ccccc1-2`, the IC50 came to 0.14 µM.

With `Nc1ccc2c(c1)-c1n[nH]c(=O)c3cccc-2c13`, the IC50 worked out at 0.068 µM.

`O=c1[nH]nc2c3c(cccc13)CCc1ccccc1-2`: the IC50 stood at 0.4 µM.

Turning to `O=c1[nH]nc2c3c(cccc13)-c1ccc([N+](=O)[O-])cc1-2`, the IC50 was determined as 0.056 µM.

Consider `O=c1[nH]nc2c3c(cccc13)Oc1ccc([N+](=O)[O-])cc1-2`, for which the IC50 stood at 0.062 µM.

For the compound `Nc1ccc2c(c1)-c1n[nH]c(=O)c3cccc(c13)O2`, the IC50 worked out at 0.046 µM.

`COC(=O)c1c[nH]c(=O)c2ccccc12`: the IC50 is 1.1 µM.

Regarding `O=C1CNC(=O)c2cc(Cl)ccc2N1`, the IC50 amounted to 1.6 µM.

Consider `O=c1[nH]nc(-c2ccc(Cl)cc2)c2ccccc12`, for which the IC50 is 0.36 µM.

Take `O=C1NCC(c2ccccc2)Oc2ccccc21` (stereo not shown): the 50% inhibitory concentration (IC50) stood at 1.9 µM.

With `O=c1[nH]cc(Br)c2c(O)cccc12`, the half-maximal inhibitory concentration (IC50) stood at 0.6 µM.

For `O=C1NC(=O)c2ccc(S(=O)(=O)O)c3cccc1c23`, the IC50 came out at 4 µM.

For `O=C1NC(=O)c2ccc(Cl)c3cccc1c23`, the IC50 turned out to be 0.46 µM.

As to `O=C1NC(=O)c2ccc(SCCO)c3cccc1c23`, the IC50 was found to be 2.8 µM.

With `O=C1NC(=O)c2cc(O)cc3cccc1c23`, the IC50 was determined as 0.81 µM.

With `O=C(O)c1cccc2[nH]c(=O)c3ccccc3c12`, the IC50 worked out at 5.1 µM.

`O=c1[nH]c2cc([N+](=O)[O-])ccc2c2ccccc12`: the IC50 worked out at 0.16 µM.

For the compound `Nc1cccc2[nH]c(=O)c3ccccc3c12`, the IC50 was determined as 0.1 µM.

For `O=c1[nH]nc(-c2ccc(N3CCCCC3)c([N+](=O)[O-])c2)c2ccccc12`, the IC50 came to 0.3 µM.

In the case of `CN(C)c1ccc(-c2n[nH]c(=O)c3ccccc23)cc1[N+](=O)[O-]`, the IC50 was found to be 0.68 µM.

Turning to `CN(C)c1ccc(-c2n[nH]c(=O)c3ccccc23)cc1N`, the IC50 was determined as 0.22 µM.

Regarding `O=c1[nH]nc(CN2CCN(c3ccccc3)CC2)c2ccccc12`, the half-inhibitory concentration (IC50) stood at 4 µM.

`O=c1[nH]nc(CN2CCN(c3ccc(Cl)cc3)CC2)c2ccccc12`: the IC50 came to 1.3 µM.

Consider `Nc1cccc2c1[nH]c(=O)c1ccccc12`, for which the IC50 was 0.76 µM.

Turning to `CN(C)c1ccc2c(c1)[nH]c(=O)c1ccccc12`, the IC50 stood at 0.31 µM.

For the compound `NC(=O)c1cccc2cccc(C(=O)O)c12` [drawing 59], the IC50 turned out to be 0.25 µM.

Still in this assay, the particulars now being: PARP inhibition; unit μM; read-out: Approximate IC50's.
On to `Nc1ccc2c(c1)[nH]c(=O)c1ccccc12`, for which the IC50 was determined as 4 µM.

Consider `O=c1[nH]c2cc3ccccc3cc2c2ccccc12`, for which the IC50 is 100 µM.

Consider `O=c1[nH]c2ccc([N+](=O)[O-])cc2c2ccccc12`, for which the IC50 came to 0.9 µM.

Turning to `O=c1[nH]c2ccccc2c2ccccc12`, the IC50 turned out to be 5.2 µM.

With `O=c1[nH]c2ccc(Cl)cc2c2ccccc12`, the IC50 came out at 0.7 µM.

`O=c1[nH]c2ccc(Br)cc2c2ccccc12`: the IC50 came to 1.1 µM.

For `O=c1[nH]c2cc(F)ccc2c2ccccc12`, the IC50 stood at 0.2 µM.

Test system in another assay: not given
Assay: not given
The following applies: in vivo; cited from earlier work.
For the compound `NC(=O)c1cccnc1` [nicotinamide], the “delayed, NO-mediated vascular failure in endotoxic shock” value is given as “protects against delayed, NO-mediated vascular failure”.

Another assay relates to rabbits.
Assay: not given
Particulars: 1 mg/kg single injection; cited from earlier work.
Turning to `Oc1cccc2c(O)nccc12` [1,5-dihydroxyisoquinoline], the reduced infarct size is 38-48%.

The same assay, now with this note: 10 mg/kg single injection one minute before occlusion or before reperfusion; cited from earlier work.
Take `NC(=O)c1cccc(N)c1` [Compound 3-AB, 3-aminobenzamide]: the “reductions in infarct size in the heart” value is given as 32-42%.

The next assay concerns male Long-Evans rats. Description: Focal cerebral ischemia (right distal MCA cauterization with bilateral temporary CCA occlusion), infarct volume by TTC staining. Particulars: in vivo administration, focal cerebral ischemia model in the rat. The procedure: Focal cerebral ischemia was produced by cauterization of the right distal MCA (middle cerebral artery) with bilateral temporary common carotid artery occlusion in male Long-Evans rats for 90 minutes. All procedures performed on the animals were approved by the University Institutional Animal Care and Use Committee of the University of Pennsylvania. A total of 42 rats (weights: 230-340 g) obtained from Charles River were used in this study. The animals fasted overnight with free access to water prior to the surgical procedure.
Two hours prior to MCA occlusion, varying amounts (control, n=14; 5 mg/kg, n=7; 10 mg/kg, n=7; 20 mg/kg, n=7; and 40 mg/kg, n=7) of the compound, 3,4-dihydro-5-[4-(1-piperidinyl)-butoxy]-1(2H)-isoquinolinone (“DPQ”) were dissolved in dimethyl sulfoxide (DMSO) using a sonicator. […]
Two hours after MCA occlusion, the animals were given the same doses of the PARP inhibitor as in the pre-treatment. […] To avoid artifacts due to edema, the-damaged area was calculated by subtracting the area of the normal tissue in the hemisphere ipsilateral to the stroke from the area of the hemisphere contralateral to the stroke, by the method of Swanson et al., “A Semiautomated Method for Measuring Brain Infarct Volume”, J. Cereb. […] The total volume of infarction was calculated by summation of the damaged volume of the brain slices.
On to `O=C1NCCc2c(OCCCCN3CCCCC3)cccc21` [DPQ, 3,4-dihydro-5-[4-(1-piperidinyl)-butoxy]-1(2H)-isoquinolinone], for which the “effect on infarct volume, overall” value is reported as “substantial reduction in infarct volume”.

For the next assay, the system named is rats.
Assay: not given
Particulars: trinitrobenzene sulfonic acid in 50% ethanol; cited from earlier work.
Turning to `NC(=O)c1cccc(N)c1` [Compound 3-AB, 3-aminobenzamide], the “inflammatory response in colitis” value is given as “reduced the inflammatory response”.

A further assay deals with human fibroblast cells lines (either W138 or BJ cells). Kind of assay: Extending proliferative capacity and lifespan of cells. The following applies: 10 uM; untreated cells stop dividing after about 40 days. The format is cell-based. On the procedure:
At the time of subdivision, the media is aspirated, and the cells rinsed with phosphate buffer saline (PBS) and then trypsinized. The cells are counted with a Coulter counter and plated at a density of 10^5 cells per cm^2 in 6-well tissue culture plates in DMEM/199 medium supplemented with 10% bovine calf serum and varying amounts (0.10 uM, and 1 mM: from a 100×stock solution in DMEM/M199 medium) of a PARP inhibitor of Formula I as disclosed herein. This process is repeated every 7 days until the cell appear to stop dividing. The untreated (control) cells reach senescence and stop dividing after about 40 days in culture. […] The cells treated with 1 mM 3-AB will still divide after 60 days in culture.
For the compound `NC(=O)c1cccc(N)c1` [Compound 3-AB, 3-aminobenzamide], the “effect on lifespan of the cells” value is “little or no effect”.

The assay is the same for the next values; noted with them: 100 uM; untreated cells stop dividing after about 40 days.
Consider `NC(=O)c1cccc(N)c1` [Compound 3-AB, 3-aminobenzamide], for which the “effect on lifespan of the cells” value is recorded as “lengthen the lifespan of the cells”.

The assay is the same for the next values; noted with them: 1 mM; untreated cells stop dividing after about 40 days.
Regarding `NC(=O)c1cccc(N)c1` [Compound 3-AB, 3-aminobenzamide], the “effect on lifespan and proliferative capacity of the cells” value is “dramatically increases the lifespan and proliferative capacity of the cells”; the “time in culture at which cells still divide” value is given as greater than 60 days.
